What was measured:
[1] = molecular target: hSTING-CTD (Homo sapiens (Human), UniProt Q86WV6); assay: Human STING protein FP competition concentration response assay; assay type: binding
Protocol: A validated STING ligand, such as c-di-GMP, which is labeled with a read-out signal (e.g., a fluorescence signal such as fluorescein), is mixed with STING-CTD (e.g., mouse STING-CTD or human STING-CTD) with or without the presence of a compound of the present application. Changes in the read-out signal are measured (e.g., by fluorescence anisotropy) to determine the binding of the compound to STING-CTD.
Fluorescein labeled c-di-GMP, a validated STING ligand, was mixed with recombinant hSTING-CTD in a homogenous assay format with or without the presence of a compound of the present application (titrated) in PBS in black 384-well plates (10 μL per well). The fluorescence anisotropy was determined on a PerkinElmer EnVisions multi-mode plate reader. The plate can be read immediately after mixing the reagents or after a few hours without change of signals.
• 1) hSTING (Supplier: HDB) • 2) 2′-Fluo-AHC-c-di GMP (BIOLOG #F009) • 3) 2′3′-cGAMP (BIOLOG #C161) • 4) DMXAA (InvivoGen #tlrl-dmx) • 5) DMSO (Sigma, #D5879-100 mL) • 6) 10×PBS(HDB #MCP-020) • 7) Assay plate, 384-well black plate, solid black bottom (Greiner #784076) • 8) Compound dilution intermediate plate, 384 LDV plate (Labcyte #LP-0200) • 9) Liquid handler, ECHO550 (Labcyte) • 10) Liquid handler, Bravo (Aglient) • 11) Reader, Envision (PerkinElmer) • 12) Centrifuge (Eppendorf) • 13) Multichannel Pipette (Raining) • 14) 10 ml Reservoir (Corning) • 15) 15 ml centrifuge tube (Corning) • 16) Adhesive Plate seals (BioRad) Compound Preparation • a) Containers of each compound were centrifuged at 1000 rpm for 5 min. • b) Compounds were dissolved in DMSO at 30 mM. • c) Compounds were sufficiently vortexed, and centrifuged at 1000 rpm for 1 min. • d) 16 uL of the compound solution was transferred into a LDV Compound Plate. • e) 2-fold serial dilutions of the compound solution were made with DMSO, and 14 concentrations were made in the 384-well LDV Compound Plate. • f) The LDV plate was spun at 1000 rpm for 60 sec and sealed with foil (stored at −20° C. if not used immediately). • g) 335 nL of each compound from the LDV Compound Plate was transferred to Assay Plate (ECHO550). Probe Preparation • a) 200 uM probe stock (2′-Fluo-AHC-c-diGMP) was diluted by ddH2O to 6 uM working concentration. • b) 10-12 uL 6 uM working solution of probe was transferred into the LDV plate. • c) 50 nL per well 6 uM working solution of probe was transferred from the LDV plate to each well of the empty Assay Plate (Greiner 784076) by ECHO550 Buffer mode. • d) Probe final concentration was 30 nM when assay system was 10 uL. • e) The Assay Plate was spun at 1000 rpm for 1 min. Compound Addition • a) After the LDV Compound Plate was prepared, 335 nL compound (ECHO550 DMSO mode) was transferred from the LDV Compound Plate into the Assay Plate (Greiner 784076) containing 50 nL probe in each well according to the Assay Plate layout. • b) DMSO final concentration was 3.35% when assay system was 10 uL. • c) The Assay Plate was spun at 1000 rpm for 1 min. Protein Addition • a) Aliquot of hSTING protein was thawed on ice, briefly to generate uniform solution. • b) 55 uM stock protein was diluted in 1×PBS assay buffer to generate 10 uM final solutions. • c) For test compound and ZPE wells, 10 μL per well of 10 uM protein solutions was added into the Assay Plate containing both the probe and test compounds or DMSO using multichannel pipette. • d) For HPE wells, 10 μL/well of 1×PBS assay buffer instead of protein was added into the Assay Plate containing both the probe and DMSO using multichannel pipette. • e) The Assay Plate was spun at 1000 rpm for Imin. • f) The Assay Plate was incubated at r.t. for 10-20 min.
The EnVision plate reader was used to record the FA value of each well immediately after mixing the reagents or after a few hours without change of signals.
The raw data and calculated data (Fluorescence anisotropy (FA)) was exported from the EnVision reader. […]

[2] = molecular target: mSTING (Mus musculus, UniProt Q3TBT3); assay: Radiometric filtration binding competition assay, mSTING
[3] = molecular target: hSTING-WT (Homo sapiens (Human), UniProt Q86WV6, H232R); assay: Radiometric filtration binding competition assay, hSTING-WT
Chain of hSTING-WT (Q86WV6 140-379 H232R): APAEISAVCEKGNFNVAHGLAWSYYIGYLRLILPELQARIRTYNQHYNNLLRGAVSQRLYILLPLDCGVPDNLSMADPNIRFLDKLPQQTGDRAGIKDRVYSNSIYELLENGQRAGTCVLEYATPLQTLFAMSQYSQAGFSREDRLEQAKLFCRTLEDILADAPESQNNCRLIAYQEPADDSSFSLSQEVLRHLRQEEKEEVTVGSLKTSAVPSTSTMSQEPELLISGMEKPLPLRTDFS
Protocol: A radiometric filtration binding competition assay was performed to quantify the binding affinity of compounds of the present application for the human or mouse STING protein, or associated HAQ human isoform. […] The resulting dose response was fit by non-linear regression to determine an IC50 value, from which a Ki value for each compound was extrapolated.
The resulting complexes were then filtered, dried, and scintillation fluid was added and the remaining radio signal was measured to determine the degree of compound ligand inhibition. This assay format was optimized for both the WT and HAQ isoforms of the human protein and the mouse orthologue protein.
Probe Concentration: Minimum concentration that achieved max assay window • g. Assay Format: Scintillation Proximity Bead or Filtration Binding Plate • h. […] Assay incubation times for successive incubation steps
WT-hSWAT: WT_FBA_HIS-SUMO-hSWAT IC50 (μM) (“WT”=Wild-type); HAQ-hSWAT: HAQ_FBA_HIS-SUMO-hSWAT IC50 (μM) (“HAQ”=human HAQ allele of STING protein); and WT-mSWAT: MOUSE_FBA_HIS-SUMO-mnSWAT IC50 (μM) which is the mouse isoform of STING protein.

[4] = molecular target: mSTING-R232 (Mus musculus, UniProt Q3TBT3); assay: STING differential scanning fluorimetry (DSF) assay, mouse STING; details: net shift in melting temperature
[5] = molecular target: hSTING-R232 (Homo sapiens (Human), UniProt Q86WV6, H232R); assay: STING differential scanning fluorimetry (DSF) assay, WT human STING; details: WT (R232) human STING aa140-379, net shift in melting temperature
Chain of hSTING-R232 (Q86WV6 140-379 H232R): as above
Protocol: A STING DSF assay was performed to determine protein thermostability shift in response to small molecule ligand binding. A STING thermostability shift assay based on differential scanning fluorimetry was used to measure (1) the net shift in melting temperature (ΔTm)between the apo and ligand-bound states of the STING protein and (2) the concentration of the thermal denaturation transition (EC50) as a surrogate measure of binding affinity (K). […] Protein in assay buffer was transferred to a 384 well plate and incubated with the hydrophobic fluorescent dye SYBR Orange. A temperature ramp was applied to the plate and the resulting dye fluorescence was plotted as a function of temperature. The first derivative of this function (dF/dT) was then used to extrapolate the melting temperature of the protein at various concentrations of compound and determine the thermal denaturation profile of a protein/compound complex.
• 1. Protein construct (affinity tag removal vs SUMO-fusion construct) • 2. Protein concentration • 3. Dye concentration • 4. Buffer • 5. Thermal ramp velocity • 6. DMSO tolerance • 7. Compound titration parameters • 8. […] 5 μM purified Target STING Protein • 3. 8 μM Sypro Orange Dye • 4. Buffer: 100 mM NaCl, 30 mM HEPES, pH 7.5 • 5. Thermal Ramp: 0.5° C./min • 6. <1% DMSO • 7. 11 point, 2 fold dilution, duplicate, 300 μM high concentrations • 8.

[6] = molecular target: STING protein (Homo sapiens (Human), UniProt Q86WV6, H232R); assay: Cell based reporter assay of IRF activation (IRF-luciferase), THP1-dual-KI R232; details: read-out: THP1-dual-KI R232_IRF(Luciferase)_Activity Maximum measured (%)
Chain of STING protein (Q86WV6 whole entry H232R): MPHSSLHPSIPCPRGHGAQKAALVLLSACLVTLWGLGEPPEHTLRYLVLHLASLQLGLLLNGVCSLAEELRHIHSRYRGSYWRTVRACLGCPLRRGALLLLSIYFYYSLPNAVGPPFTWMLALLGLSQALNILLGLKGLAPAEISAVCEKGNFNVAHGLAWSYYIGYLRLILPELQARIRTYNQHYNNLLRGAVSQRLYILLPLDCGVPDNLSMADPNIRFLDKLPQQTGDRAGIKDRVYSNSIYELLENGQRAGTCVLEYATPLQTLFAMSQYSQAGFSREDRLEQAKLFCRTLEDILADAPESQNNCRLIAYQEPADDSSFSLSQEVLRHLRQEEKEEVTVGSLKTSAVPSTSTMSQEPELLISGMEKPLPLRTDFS

Chain of hSTING-CTD (Q86WV6 135-379): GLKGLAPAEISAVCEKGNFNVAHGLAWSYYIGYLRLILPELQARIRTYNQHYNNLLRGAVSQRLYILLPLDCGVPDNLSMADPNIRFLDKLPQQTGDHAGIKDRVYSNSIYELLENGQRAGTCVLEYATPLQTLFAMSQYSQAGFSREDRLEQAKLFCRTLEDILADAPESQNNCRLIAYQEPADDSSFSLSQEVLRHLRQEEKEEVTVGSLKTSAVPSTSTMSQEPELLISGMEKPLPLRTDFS

IC50 [1] [µM]	IC50 [2] [µM]	IC50 [3] [µM]	MOUSE DSF_6xHIS-SUMO Tm Shift (° C.) [4]	WT_DSF_hSWAT Tm Shift (° C.) [5]	Emax [6] [%]	SMILES
< 100						CC(C)c1ccc(-c2ccc3c(c2)c(=O)c2ccc(Cl)c(Cl)c2n3CC(=O)O)cc1 [Compound 72]
100 to 500						CC1(C)CCC=C(c2ccc3c(c2)c(=O)c2ccccc2n3CC(=O)O)C1 [Compound 73]
100 to 500						Cc1ccccc1CCc1ccc2c(c1)c(=O)c1ccccc1n2CC(=O)O [Compound 74]
100 to 500						Cc1ccc2c(=O)c3cc(CCC4CCCCC4)ccc3n(CC(=O)O)c2c1 [Compound 76]
100 to 500						Cc1ccc2c(=O)c3cc(-c4ccc(C(C)C)cc4)ccc3n(CC(=O)O)c2c1 [Compound 77]
> 1000						Cc1ccc2c(=O)c3cc(Br)ccc3n(CC(=O)O)c2c1 [Compound 78]
100 to 500						O=C(O)Cn1c2cc(Br)ccc2c(=O)c2ccc(Cl)c(Cl)c21 [Compound 79]
100 to 500						O=C(O)Cn1c2ccccc2c(=O)c2cc(/C=C\c3ccccc3)ccc21 [Compound 80]
> 1000						O=C(O)Cn1c2ccccc2c(=O)c2ccc(F)c(Cl)c21 [Compound 83]
> 1000						O=C(O)Cn1c2ccccc2c(=O)c2ccc(Cl)c(F)c21 [Compound 84]
500 to 1000						CC1(C)c2ccccc2N(CC(=O)O)c2ccc(Br)cc21 [Compound 86]
100 to 500						O=C(O)Cn1c2ccc(CCc3ccccc3)cc2c(=O)c2ccc(Cl)c(Cl)c21 [Compound 88]
	< 20	< 20	D (“D” > 15° C.)	D (“D” > 7° C.)	< 5	C[C@@H](O)COc1c(Cl)ccc2c(=O)c3ccccc3n(CC(=O)O)c12 [Compound 323]
	< 20	< 20	D (“D” > 15° C.)	D (“D” > 7° C.)	> 50	CN(C)c1c(Cl)ccc2c(=O)c3ccc(C(C)(C)C)cc3n(CC(=O)O)c12 [Compound 324]
	100 to 300	100 to 300	C (“C” = 5-15° C.)	C (“C” = 2-7° C,)	25 to 50	Cc1ccc2c(=O)c3ccc(Cl)c(OCC4CC4)c3n(CC(=O)O)c2c1 [Compound 325]
	< 20	< 20	D (“D” > 15° C.)	D (“D” > 7° C.)	> 50	Cc1ccc2c(=O)c3ccc(Cl)c(-c4ccccc4)c3n(CC(=O)O)c2c1 [Compound 326]
	> 300	> 300	C (“C” = 5-15° C.)	C (“C” = 2-7° C,)	< 5	CC(C)c1ccc2c(=O)c3ccc(Cl)c(OC[C@@H](C)O)c3n(CC(=O)O)c2c1 [Compound 327]
	> 300	> 300	C (“C” = 5-15° C.)	B (“B” = 0-2° C.)	< 5	O=C(O)Cn1c2ccccc2c(=O)c2ccc(Cl)c(OCCO)c21 [Compound 328]
	> 300	> 300	C (“C” = 5-15° C.)	B (“B” = 0-2° C.)	< 5	O=C(O)Cn1c2ccccc2c(=O)c2ccc(Cl)c(OCCCO)c21 [Compound 329]
	> 300	> 300	B (“B” = 0-5° C.)	B (“B” = 0-2° C.)	< 5	COCCOc1c(Cl)ccc2c(=O)c3ccccc3n(CC(=O)O)c12 [Compound 330]
	< 20	< 20	D (“D” > 15° C.)	D (“D” > 7° C.)	> 50	CN(C)c1c(Cl)ccc2c(=O)c3ccc(Nc4ccccc4)cc3n(CC(=O)O)c12 [Compound 332]
	> 300	> 300	B (“B” = 0-5° C.)	B (“B” = 0-2° C.)	5 to 25	COc1cccc2c(=O)c3ccc(Cl)c(OC)c3n(CC(=O)O)c12 [Compound 333]

From patent US11414387B2, “Oxoacridinyl acetic acid derivatives and methods of use” (Stingthera, Inc., priority 2017, dated 2022)
